Experimental data taken from patent publication US20240400549A1, “COMPOUNDS AND THEIR USES FOR TREATING NEURODEGENERATIVE DISEASE” (Academia Sinica, priority 2021, published 2024).

Target: T1, C-TDP-43 oligomeric intermediates (Homo sapiens, UniProt Q13148)
T1 construct: expressed in transfected cells; host or cells: Neuro-2a (mouse neuroblastoma)
Test: FLIM-FRET of C-TDP-43 oligomeric intermediates in Neuro-2a cells
Format: cell-based, mouse
Experimental: To study the EFRET of oligomeric intermediates of C-TDP-43, we seeded 2×10^6 cells/dish of Neuro-2a cells in sterile 35 mm μ-Dish and transfected with either both 0.55 μg eGFP-C-TDP-43 and 0.55 μg mCherry-C-TDP-43 or both 0.55 μg eGFP and 0.55 μg mCherry (negative control) plasmids. After 2 hours, compound I-1b was delivered to the experimental group. After 48 h incubation, the Neuro-2a cells were fixed (4% paraformaldehyde in 15 min and stored in 1×PBS buffer) and further analyzed by Q2 FastFLIM system (ISS Inc.). The Neruo2a cells were monitored and captured under oil-immersion objective observation (Nikon Plan Apo 100×/numerical aperture (NA) 1.4). […]
The fitting method of the FastFLIM images were described in the “Experimental Section” of a previous publication (He, R. Y et al. Adv. Sci. 2020, 7 (2), 1901165). […] The FRET efficiency of oligomeric intermediates was calculated by the formula: […]
wherein τD is donor lifetime of eGFP only, and τDA denotes lifetime of intermediates. Then, the EFRET of each pixel to form the FRET maps as well as the histogram of EFRET (FIG. 12B) were calculated by ISS Software VistaVision. […]
To assess C-TDP-43 oligomeric intermediates, fluorescence lifetime imaging microscopy (FLIM) was employed to measure the efficiency of Forster resonance energy transfer (EFRET) of the fluorescence protein-tagged C-TDP-43 in the presence or absence of compound I-1b. […]

T1 sequence (Q13148 208-414 limits assumed): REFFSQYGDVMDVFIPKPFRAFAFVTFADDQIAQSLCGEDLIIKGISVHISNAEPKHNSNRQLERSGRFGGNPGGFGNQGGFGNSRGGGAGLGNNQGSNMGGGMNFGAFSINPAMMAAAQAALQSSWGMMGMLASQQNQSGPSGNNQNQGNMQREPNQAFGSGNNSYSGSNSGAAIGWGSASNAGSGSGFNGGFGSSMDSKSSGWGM
T1 sequence (Q13148 208-414 limits assumed): as above

Q: What does the source list for CN(C)c1ccc(-c2nc3ccc(OCCOCCOCCNc4cccc5c4C(=O)N(C4CCC(=O)NC4=O)C5=O)cc3s2)cc1 (centres unmarked) [I-1b, 4-((2-(2-(2-((2-(4-(dimethylamino)phenyl)benzo[d]thiazol-6-yl)oxy)ethoxy)ethoxy)ethyl)amino)-2-(2,6-dioxopiperidin-3-yl)isoindoline-1,3-dione]?
A: averaged EFRET value (Neuro-2a cells expressing 2FP—C-TDP-43, 48 h, 28.12% without compound, 3.36% negative control): 22.4%; EFRET of the C-TDP-43 oligomeric intermediates (statistically, ISS VistaVision) (Neuro-2a cells, decreased from 48.92% without compound): 40.11%
